“Also recorded” adds a separate entry of the source. Where no end group is shown, it is not given here.
How the values were obtained:
Type in all cases: in vivo
[1] = test system: rat incisional wounds; test: Percentage re-epithelialisation by image analysis of day three rat incisional wounds; details: FIG. 4
Description: The effects of the peptide on wound healing and scar formation were assessed with reference to the following parameters: • i) The macroscopic quality of the wounds. This was assessed using a rat macroscopic wound assessment protocol as follows. Macroscopic appearance was scored using a Visual Analogue Scale (VAS) consisting of a 10 cm line representing a scale from 0 (denoted by a mark at 0 cm) indicating a “good” wound to 10 (denoted by a mark at 10 cm) indicating a “poor” wound. In assessing the quality of the wound a mark representative of the score conferred was made on the 10 cm line based on the gape and quality of healing of the wound. The best-healed wounds were scored towards the good wound end of the scale (the left hand side of the VAS line) and the poorly healed ones were scored towards the poor wound end of the scale (the right hand side of the VAS line). The marks awarded were measured from the left hand side to provide the final value for the wound assessment in centimetres (to 1 decimal place). • ii) The microscopic width of wounds. The microscopic width of wounds was measured using image analysis of histological sections of wounds. Wounds were analysed using a Leica DM RXA Microscope and a Leica QWin Image Analyser. Linear wound width was measured with a straight line from the left wound margin (where the epidermis begins to thicken) to the right wound margin (where the epidermis begins to thicken). • iii) The re-epithelialisation of wounds. The extent of re-epithelialisation of wounds was measured using image analysis of histological sections of wounds. The percentage re-epithelialisation was calculated by first measuring the non-epithelialised wound diameter. The non-epithelialised wound length was measured with a straight line from the left hand non-epithelialised wound edge to the right hand non-epithelialised wound edge. […] The re-epithelialisation width was then calculated by subtracting the non re-epithelialised width from the wound width. The percentage re-epithelialisation was then calculated accordingly. • iv) The microscopic quality of the wounds. […]

[2] = test system: rat incisional wounds; test: Macroscopic wound quality (VAS) of day three rat incisional wounds; details: day 0 and 1, p<0.05 vs naïve wounds, FIG. 1
Description: The effects of the peptide on wound healing and scar formation were assessed with reference to the following parameters: • i) The macroscopic quality of the wounds. This was assessed using a rat macroscopic wound assessment protocol as follows. Macroscopic appearance was scored using a Visual Analogue Scale (VAS) consisting of a 10 cm line representing a scale from 0 (denoted by a mark at 0 cm) indicating a “good” wound to 10 (denoted by a mark at 10 cm) indicating a “poor” wound. In assessing the quality of the wound a mark representative of the score conferred was made on the 10 cm line based on the gape and quality of healing of the wound. The best-healed wounds were scored towards the good wound end of the scale (the left hand side of the VAS line) and the poorly healed ones were scored towards the poor wound end of the scale (the right hand side of the VAS line). The marks awarded were measured from the left hand side to provide the final value for the wound assessment in centimetres (to 1 decimal place). • ii) The microscopic width of wounds. The microscopic width of wounds was measured using image analysis of histological sections of wounds. Wounds were analysed using a Leica DM RXA Microscope and a Leica QWin Image Analyser. […] The extent of re-epithelialisation of wounds was measured using image analysis of histological sections of wounds. […]

[3] = test system: rat incisional wounds; test: Macroscopic scar quality (VAS) of day seventy scars from rat incisional wounds; details: FIG. 9
Excerpt: (§1) Wound index assesses the quality of the wound and gives an assessment based upon the following parameters: wound width (scored out of 10; 1 being a very narrow wound and 10 being a very wide wound); total cellularity of the wound (scored out of 5; 1 being a wound containing a low number of cells and 5 being a wound with a high number of cells); inflammatory cell number (scored out of 5; 1 being a low number of inflammatory cells and 5 being a high number of inflammatory cells); and epithelial covering (scored 0 for complete coverage and 1 for incomplete coverage). The final wound index score is derived by adding the scores for each parameter. A higher wound index value indicates a wound of low quality, whilst a lower wound index value represents a wound of relatively higher quality. • v) The macroscopic quality of scars. This was assessed using a rat macroscopic scar assessment protocol as follows. Macroscopic appearance was scored using a Visual Analogue Scale (VAS) consisting of a 10 cm line representing a scale from 0 corresponding to normal skin to 10 corresponding to a bad scar. A mark was made on the 10 cm line based on an overall assessment of the scar taking into account parameters such as the height, width, contour and colour of the scar. The best scars (typically small width and colour, height and contour like normal skin) were scored towards the normal skin end of the scale (the left hand side of the VAS line) and bad scars (typically large width, raised with uneven contours and whiter colour) were scored towards the bad scar end of the scale (the right hand side of the VAS line). The marks were measured from the left hand side to provide the final value for the scar assessment in centimetres (to 1 decimal place).
(§2) Rat incisional wounds formed in accordance with well-accepted experimental models (previously described in Shah et al. 1994) were treated with peptide Ala-Tyr-Met-Thr-Met-Lys-Ile-Arg-Asn (Sequence ID No. 2) at concentrations of 50, 125, 250 […] ng/100 μl. Treated and control wounds were harvested at three days post-wounding, and scars derived from treated and control wounds harvested at seventy days post-wounding.
(§3) Four wounds were made on each experimental animal (rat), of which two were treated with the trial concentrations of the peptide. The peptide was administered by intradermal injection on the day of wounding and at one day following wounding.
Scars for analysis were harvested from experimental animals killed on the seventieth day post-wounding.
Macroscopic quality of scars was assessed using macroscopic scar assessment sheets scored by two observers in accordance with the protocols described above.
Statistical analysis was carried out using a one-factor analysis of variance (ANOVA) followed by the Mann-Whitney U (MWU) test. […]

[4] = test system: rat incisional wounds; test: Microscopic wound width by image analysis of day three rat incisional wounds; details: for wound width at the mid-points of incisional wounds: FIG. 3; for wound width at the top of incisional wounds: FIG. 2
Description: (§4) The effects of the peptide on wound healing and scar formation were assessed with reference to the following parameters: • i) The macroscopic quality of the wounds. This was assessed using a rat macroscopic wound assessment protocol as follows. Macroscopic appearance was scored using a Visual Analogue Scale (VAS) consisting of a 10 cm line representing a scale from 0 (denoted by a mark at 0 cm) indicating a “good” wound to 10 (denoted by a mark at 10 cm) indicating a “poor” wound. In assessing the quality of the wound a mark representative of the score conferred was made on the 10 cm line based on the gape and quality of healing of the wound. The best-healed wounds were scored towards the good wound end of the scale (the left hand side of the VAS line) and the poorly healed ones were scored towards the poor wound end of the scale (the right hand side of the VAS line). The marks awarded were measured from the left hand side to provide the final value for the wound assessment in centimetres (to 1 decimal place). • ii) The microscopic width of wounds. The microscopic width of wounds was measured using image analysis of histological sections of wounds. Wounds were analysed using a Leica DM RXA Microscope and a Leica QWin Image Analyser. Linear wound width was measured with a straight line from the left wound margin (where the epidermis begins to thicken) to the right wound margin (where the epidermis begins to thicken). • iii) The re-epithelialisation of wounds. The extent of re-epithelialisation of wounds was measured using image analysis of histological sections of wounds. The percentage re-epithelialisation was calculated by first measuring the non-epithelialised wound diameter. The non-epithelialised wound length was measured with a straight line from the left hand non-epithelialised wound edge to the right hand non-epithelialised wound edge. The non-epithelialised wound edges were identified as the current position of the epithelium in the wound during healing. The re-epithelialisation width was then calculated by subtracting the non re-epithelialised width from the wound width. The percentage re-epithelialisation was then calculated accordingly. • iv) The microscopic quality of the wounds. This was assessed using microscopic Wound Index sheets analysed in accordance with the protocol described below. Evaluation of the microscopic quality of the wounds included an assessment of inflammatory response present in the wounds, as well as assessment of the cellularity of the wounds.
as §2, §3
The experimental animals for wound analysis were killed on the third day post-wounding, and wounds harvested for histology.
Wound widths and percentage re-epithelialisation of incisions were measured by Image Analysis in accordance with the protocols described above. […]

[5] = test system: rat incisional wounds; test: Microscopic Wound Index (wound width, cellularity, inflammation, epithelial covering) of day three rat incisional wounds; details: for wound index score / wound width score (Wound Index parameter): day three, combined scores of 3 observers; for wound index score: FIG. 5; for wound width score (Wound Index parameter): FIG. 6
Description: as §4
as §1, with “The best scars (typically small width and colour, height and contour like normal skin) were scored towards the normal skin end of the scale (the left hand side of the VAS line) and bad scars (typically large width, raised with uneven contours and whiter colour) were scored towards the bad scar end of the scale (the right hand side of the VAS line). The marks were measured from the left hand side to provide the final value for the scar assessment in centimetres (to 1 decimal place).” left out

[6] = 125 ng/100 μl, p<0.01 vs naïve wounds

Sequence: AYMTMKIRN [peptide of Sequence ID No. 2, peptide based on the C-terminal portion of interleukin 10 (IL-10)]
- percentage of the tops of incisional wounds covered by re-epithelialisation ([1]; 50 ng/100 μl): appeared to exhibit an increase in the extent of re-epithelialisation
- percentage of the tops of incisional wounds covered by re-epithelialisation ([1]; 125 ng/100 μl): appeared to exhibit an increase in the extent of re-epithelialisation
- percentage of the tops of incisional wounds covered by re-epithelialisation ([1]; 250 ng/100 μl, p<0.01 vs naïve, p<0.05 vs diluent alone): significant increase in the extent of re-epithelialisation
- macroscopic visual analogue (VAS) score, wound quality ([2]; 125 ng/100 μl intradermal): significant improvement in the macroscopic quality
- macroscopic visual analogue (VAS) score, wound quality ([2]; 250 ng/100 μl intradermal): significant improvement in the macroscopic quality
- macroscopic visual analogue (VAS) score, scar quality ([3]; 50 ng/100 μl, p<0.05 vs naïve control wounds): significantly improved scarring
- macroscopic visual analogue (VAS) score, scar quality ([3]; 125 ng/100 μl, p<0.05 vs naïve control wounds): significantly improved scarring
- macroscopic visual analogue (VAS) score, scar quality ([3]; 250 ng/100 μl, p<0.01 vs naïve and diluent control wounds, 2 observers): significant improvement in macroscopic quality
- macroscopic visual analogue (VAS) score, scar quality ([3]; 500 ng/100 μl, p<0.05 vs naïve control wounds): significantly improved scarring
- wound width at the mid-points of incisional wounds ([4]; 50 ng/100 μl, p<0.05 vs naïve wounds): significant decrease in wound width
- wound width at the top of incisional wounds [4, 6]: significant decrease in wound width
- wound width at the mid-points of incisional wounds [4, 6]: significant decrease in wound width
- wound width at the top of incisional wounds ([4]; 250 ng/100 μl, p<0.01 vs naïve wounds): significant decrease in wound width
- wound width at the mid-points of incisional wounds ([4]; 250 ng/100 μl, p<0.01 vs naïve, p<0.05 vs diluent control wounds): significant decrease in wound width
- wound index score ([5]; 50 ng/100 μl): lower wound index scores than did control wounds
- wound width score (Wound Index parameter) ([5]; 50 ng/100 μl): lower wound width scores than controls
- wound index score ([5]; 125 ng/100 μl): lower wound index scores than did control wounds
- wound width score (Wound Index parameter) ([5]; 125 ng/100 μl): lower wound width scores than controls
- wound index score ([5]; 250 ng/100 μl): lower wound index scores than did control wounds; also recorded: lowest wound index scores
- wound width score (Wound Index parameter) ([5]; 250 ng/100 μl): lower wound width scores than controls
- cellularity of treated wounds ([5]; day three incisional wounds, combined observers, FIG. 7): did not reduce cellularity of treated wounds
- inflammatory response in treated wounds ([5]; day three incisional wounds, combined observers, FIG. 8): did not reduce cellularity of treated wounds, or cause a reduction of the inflammatory response

Source: patent US20150218222A1, “Medicaments” (ARMO BioSciences, Inc., priority 2005, published 2015)
